Columns and labels:
Herpes Simplex virus [1] = experiment: Twice-daily coating of open Herpes Simplex lip sores with cyanoacrylate (case reports); assay type: in vivo, human
From the text: A person had open sores on their lower lip from which a clear liquid was exuding. The sores were diagnosed as resulting from the Herpes Simplex virus. Their initial office treatment consisted of swabbing the open sores with n-butyl-cyanoacrylate using a surgical swab until the sores and surrounding tissue were completely covered. They were given a supply of n-butyl-cyanoacrylate and surgical paddles for self-application and instructed on their use. They were cautioned not to close their lips or press them together after applying the n-butyl-cyanoacrylate for two to three minutes so that the coating over the sores would be completely dry.
An individual had open sores on their lip from which a clear liquid was exuding. The sores were diagnosed as Herpes Simplex virus.
An individual had open sores on their lip from which a clear liquid was exuding. The sores were diagnosed as resulting from the Herpes Simplex virus. They were instructed to coat the sores with 2 acetyl cyanoacrylate using a surgical swab until the sores and surrounding tissue were completely covered.
An individual had open sores on their lip from which a clear liquid was exuding. The sores were diagnosed as resulting from the Herpes Simplex virus. They were instructed to coat the sores with octyl-cyanoacrylate using a surgical swab until the sores and surrounding tissue were completely covered.

Herpes Simplex virus [2] = experiment: Twice-daily coating of a Herpes Simplex prodrome on the lip with cyanoacrylate (case report); assay type: in vivo, human; settings: itching prodrome on lower lip, topical coating twice daily for three days
From the text: Before the open Herpes sore forms, an area where the sore will form becomes sensitive and itchy, and is known as a prodrome. The application of cyanoacrylate to the prodrome prevents the sore from forming. The cyanoacrylate can also be applied in the same manner as previously described to the prodrome.
A person had itching on their lower lip. The itching was diagnosed as resulting from a prodrome of the Herpes Simplex virus. Their initial office treatment consisted of being told to swab the prodrome with n-butyl-cyanoacrylate using a surgical swab until the prodrome and surrounding tissue were completely covered. They were given a supply of n-butyl-cyanoacrylate and surgical paddles for self-application and instructed on their use.

[3] = topical coating twice daily for three days

Row | Compound | state of the open sores (exudation of clear liquid) at end of treatment (Herpes Simplex virus [1]; [3]) | state of the open sores (exudation of clear liquid) at end of treatment (Herpes Simplex virus [1]; topical coating twice daily for several days) | outcome of prodrome (sore formation) (Herpes Simplex virus [2])
1 | 2 acetyl cyanoacrylate | no longer exuding |  | 
2 | C=C(C#N)C(=O)OCC [ethyl cyanoacrylate] |  | no longer exudating | 
3 | C=C(C#N)C(=O)OCCCC [n-butyl-cyanoacrylate] | no longer exudating |  | prodrome disappeared and no sores formed or exuded
4 | C=C(C#N)C(=O)OCCCCCCCC [octyl-cyanoacrylate] | no longer exuding |  | 
